The test system of the assay is primary osteoblasts. In words: Alkaline phosphatase (ALP) activity of osteoblasts. Format: cell-based, Wistar rats. To be noted: day 15 of treatment; 10^-9 M 1,25(OH)2D3, 1 μM OLP, 1 μM HTy; vs negative control (C-); FIGS. 3 to 6. On the procedure:
Primary osteoblasts were isolated from the calvaria of newborn Wistar rats by enzymatic digestion as described by Declercq et al. in 2004. During all experiments, cells were maintained in α-minimal essential medium with 10% heat-inactivated fetal bovine serum and 1% penicillin/streptomycin under conditions of 5% CO2 and 37° C. Cells were seeded on Coll-1-coated 96-well plates at a density of 3500 cells/well or in 24-well plates at a density of 3×10^4 cells/well and cultured for 2 days in o-MEM to reach confluence. Cells were then exposed to different conditions: minimal medium (C−), minimal medium containing 50 μg/ml ascorbic acid, 5 mM ß-glycerophosphate (C+; optimized medium), and minimal medium supplemented with 1 μM Oleuropein ([…]) or/and 10^−9 M 1,25 dihydroxyvitamin D3 (1,25(OH)2D3). OLP and HTy were dissolved in dimethylsulfoxide (DMSO) and 1,25(OH)2D3 was dissolved in ethanol. The final concentrations of DMSO and ethanol in the medium were 0.1% each. The medium was changed every 2 days.
Enzymatic activity of Alkaline Phosphatase (ALP) was measured kinetically on Treatment Days 0, 5, 9, 12 and 15. Osteoblasts were rinsed twice with PBS before being frozen on dry ice. […] Absorbance was measured at 405 nm and 30° C., and every 2 min 30 s for 30 min using a VarioSklan Flash microplate reader. ALP activity was expressed as micromoles of p-NPP per hour per milligram of protein. […]

This is an account of results in US11166965B2, “Compositions for use in stimulating bone growth” (Société des Produits Nestlé S.A., priority 2013, dated 2021).

As to `C=C1/C(=C\C=C2/CCC[C@]3(C)[C@@H]([C@H](C)CCCC(C)(C)O)CC[C@@H]23)C[C@@H](O)C[C@@H]1O` [Vitamin D3, 1,25 dihydroxyvitamin D3], the “AP (ALP) activity / osteoblast activity” value is on record as “small but statistically significant increase”.
